Data published in US20180215710A1, “METHODS FOR INHIBITING NATIVE AND PROMISCUOUS UPTAKE OF MONOAMINE NEUROTRANSMITTERS” (priority 2011, published 2018).
“Also recorded” adds a separate entry of the source.

Assays:
[1] = Safety monitoring in Phase 1 single-dose PET study; assay type: in vivo, human; details: single oral dose of 150 mg
Source text: (§1) PET scans were done at baseline and at 2 and 7-hour post-dose via measurement of [^11C]DASB tracer binding. Periodic blood samples were collected for evaluation of (+)-1-(3,4-dichlorophenyl)-3-azabicyclo[3.1.0]hexane PK. Safety was monitored by clinical and laboratory evaluations, including vital signs, physical examination, clinical chemistry, hematology, urinalysis, and ECG.

[2] = Plasma concentration in Phase 1 single-dose PET study; assay type: in vivo, human; details: ~7 h after single oral dose of 150 mg, N = 3
Source text: as §1

[3] = test system: patients with Major Depressive Disorder; assay: Phase 2 six week double-blind placebo-controlled study in patients with Major Depressive Disorder; assay type: in vivo, human; details: for CGI-I in comparison to placebo (in words): MITT n=56, MMRM
Source text: Subjects were identified who were between the ages of 18-65 (inclusive), and met criteria for Major Depressive Disorder in accordance with the Diagnostic and Statistical manual of Mental Disorders-IV-TR and confirmed by the MINI International Neuropsychiatric Interview. […] They were also required to have a BMI≤35 and body weight>45 kg at the Screening Visit. […] Subjects were required to refrain from taking antidepressants, anticonvulsants including gabapentin and pregabalin, neuroleptics, MAO inhibitors, barbiturates, benzodiazepines, stimulants, antipsychotics, lithium, anxiolytics and beta blockers starting two weeks prior to the study and continuing until after the follow-up visit. Subjects were evaluated for safety parameters prior to and throughout the trial by a variety of measures including electrocardiogram, physical examination, vital signs and body weight, and clinical laboratory testing including a lipid panel, CBC with differential and urinalysis. […] Efficacy was determined by measuring the change from baseline in the Montgomery-Åsberg Depression Rating Scale (MADRS), the HAMD-17, the Clinical Global Impression Global Improvement Scale (CGI-1), the Clinical Global Impression-Severity scale (CGI-S) and the Derogatis Interview for Sexual Functioning Self-Report (DISF-SR). […] Comparisons between treatment groups based on MADRS (the primary efficacy parameter), […] and CGI-S scores were analyzed using a mixed-repeated measures (MMRM) analysis model including factors for Subject, Visit, Treatment Arm and Baseline value as a covariate. Adjusted least-squares means from these models are presented. Comparisons between groups were made at each post-baseline visit using model-based contrasts and adjusted degrees of freedom. For these analyses no explicit data imputations were made prior to the analysis. Response and remission categorical data were analyzed using chi-square tests. Inferential analyses of safety data were conducted with ANOVA models or chi-square tests. Two-tail alpha was set to 0.05. All analyses were conducted using SAS version 9.2.

[4] = target: T1, serotonin transporters (SERT) (Homo sapiens, UniProt P31645); assay: Brain SERT occupancy by PET with [11C]DASB tracer, Phase 1 single-dose study; assay type: in vivo; details: N = 3
T1 construct: from tissue; host or cells: living human brain (3 healthy adult male volunteers), PET with [11C]DASB
Source text: This study was a Phase 1, single-dose, randomized, open-label study using positron emission tomography (PET) and [^11C]DASB ([^11C]N,N-dimethyl-2-(2-amino-4-cyanophenylthio) benzylamine) as a PET tracer in 3 healthy, young, adult male volunteer subjects. Using PET imaging, uptake inhibitor effects may be measured based on the proportion of SERT sites blocked in the brain.
as §1

[5] = test system: extracellular norepinephrine and dopamine in prefrontal cortex; details: Bymaster et al. 2002a; cited from earlier work
[6] = 100 mg, Visit 8, LOCF, Completers, 50% reduction or more of baseline total score
[7] = six week double-blind, MITT n=56, MMRM LS means
[8] = ~2 h after single oral dose of 150 mg
[9] = ~7 h after single oral dose of 150 mg

T1 sequence (P31645 whole entry): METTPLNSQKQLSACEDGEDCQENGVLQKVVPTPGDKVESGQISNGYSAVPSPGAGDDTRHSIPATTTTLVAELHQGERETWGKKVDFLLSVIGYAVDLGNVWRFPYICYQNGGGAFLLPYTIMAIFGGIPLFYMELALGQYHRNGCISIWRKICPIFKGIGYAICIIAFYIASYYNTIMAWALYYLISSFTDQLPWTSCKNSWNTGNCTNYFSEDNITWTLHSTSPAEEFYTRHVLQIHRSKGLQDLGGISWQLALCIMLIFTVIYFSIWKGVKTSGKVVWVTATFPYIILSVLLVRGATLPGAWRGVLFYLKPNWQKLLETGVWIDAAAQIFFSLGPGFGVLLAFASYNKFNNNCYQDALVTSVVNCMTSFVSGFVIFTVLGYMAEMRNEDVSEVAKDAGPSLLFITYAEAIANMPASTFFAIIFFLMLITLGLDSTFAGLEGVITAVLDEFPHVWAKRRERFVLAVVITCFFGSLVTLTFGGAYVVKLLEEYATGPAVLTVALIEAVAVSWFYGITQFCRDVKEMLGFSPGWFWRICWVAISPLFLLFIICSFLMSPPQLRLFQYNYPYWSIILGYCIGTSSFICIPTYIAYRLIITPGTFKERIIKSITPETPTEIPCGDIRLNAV

Clc1ccc(C23CNCC2C3)cc1Cl (single isomer, unassigned; (+)) [(+)-1-(3,4-dichlorophenyl)-3-azabicyclo[3.1.0]hexane]
discontinuation due to a clinical or laboratory adverse experience [1]: no subjects were discontinued | laboratory safety tests [1]: no clinically meaningful changes | physical examinations and ECGs [1]: no clinically meaningful changes from pre-dose evaluations | vital sign measurements (blood pressure, pulse rate, respiratory rate, oral temperature) [1]: No dose-related changes | serious adverse events ([1]; 3 healthy male subjects): No serious adverse events were reported | total adverse events reported by one subject ([1]; rated definitely not related to study drug): 5 | Mean Plasma Concentration [2]: ~405 ng/mL | tolerability ([3]; 50 mg/day then 100 mg/day): relatively well tolerated | remission rates by CGI-S score of ≤2 compared to placebo (in words) ([3]; 100 mg, LOCF): significantly greater remission rates | Response rate HAMD-17 [3, 6]: (11/20) 55.00% | Response rate MADRS [3, 6]: (8/20) 40.00% | Remission rate CGI-S ([3]; 100 mg, Visit 8, LOCF, Completers, CGI-S ≤ 2): (7/20) 35.00% | Remission rate HAMD-17 ([3]; 100 mg, Visit 8, LOCF, Completers, HAMD-17 ≤ 7): (4/20) 20.00% | Remission rate MADRS ([3]; 100 mg, Visit 8, LOCF, Completers, MADRS ≤ 12): (6/20) 30.00% | anhedonia factor score of the MADRS compared to placebo (in words) ([3]; MITT n=56, MMRM LS means, listed as EB-1010): statistically significant improvement | Anhedonia factor difference placebo vs drug ([3]; Visit 8, MMRM, MITT): 1.41 | CGI-I difference placebo vs drug ([3]; Visit 8, MMRM, MITT): 0.62 | CGI-S difference placebo vs drug ([3]; Visit 8, MMRM, MITT): 0.22 | HAMD-17 difference placebo vs drug ([3]; Visit 8, MMRM, MITT): 3.12 | MADRS difference placebo vs drug ([3]; Visit 8, MMRM, MITT): 3.83 | Anhedonia factor (LS Mean − SE) ([3]; Visit 8, MMRM, MITT, n = 30): 7.92 (0.50) | CGI-I (LS Mean − SE) ([3]; Visit 8, MMRM, MITT, n = 30): 2.13 (0.20) | CGI-S (LS Mean − SE) ([3]; Visit 8, MMRM, MITT, n = 30): 3.31 (0.15) | HAMD-17 (LS Mean − SE) ([3]; Visit 8, MMRM, MITT, n = 30): 14.90 (1.40) | overall statistical effect size (Cohen's d), MADRS total score ([3]; Week 6, vs placebo): −0.63 | discontinuation due to AEs ([3]; compared with placebo): Two patients in each treatment group discontinued the study early due to AEs | heart rate, systolic or diastolic blood pressure compared to placebo ([3]; human, in vivo): did not result in significant increases | serious AEs ([3]; human, in vivo): no serious AEs were reported | weight gain ([3]; human, in vivo): not associated with significant weight gain | percentage of patients who reported an adverse treatment event ([3]; placebo 39.28%): 30.30% | CGI-I in comparison to placebo (in words) ([3]; six week double-blind): statistically significantly superior to placebo | CGI-S in comparison to placebo (in words) [3, 7]: improvement | HAM-D in comparison to placebo (in words) [3, 7]: decrease | MADRS total score in comparison to placebo (in words) [3, 7]: statistically significantly superior | MADRS total score in comparison to placebo (in words) ([3]; six week double-blind, MITT n=56, MMRM LS means, listed as EB-1010): decrease | CGI-I in comparison to placebo (in words) ([3]; six week double-blind, listed as EB-1010): decrease | efficacy in treating depression (in words) ([3]; titrated dose of 50 mg/day then 100 mg/day): effective for treatment of patients with MDD; also recorded: efficacious in treating depression | Mean SERT Occupancy, Mean [4, 8]: approximately 48% | Mean SERT Occupancy, Striatum [4, 8]: 48% | Mean SERT Occupancy, Thalamus [4, 8]: 48% | Mean SERT Occupancy, Striatum [4, 9]: 32% | Mean SERT Occupancy, Thalamus [4, 9]: 33%

CNCC[C@@H](Oc1ccccc1C)c1ccccc1 [atomoxetine]
extracellular norepinephrine and dopamine concentrations in prefrontal cortex [5]: increased extracellular norepinephrine and dopamine concentrations
